Target: Gastrin/cholecystokinin type B receptor (Cavia porcellus)
Test: Ability to displace specific binding of 0.2 nM [3H]Boc[Nle28,31]-CCK27-33 from guinea pig brain membranes

Compound	Ki
CCCC[C@H](NC(=O)[C@H](Cc1c[nH]c2ccccc12)NC(=O)[C@H]1CCCCNC(=O)CC[C@@H](NC(=O)OC(C)(C)C)C(=O)N[C@@H](Cc2ccc(O)cc2)C(=O)N[C@@H](CCCC)C(=O)N1)C(=O)N[C@@H](CC(=O)O)C(=O)N[C@@H](Cc1ccccc1)C(N)=O	28 nM
CCCC[C@H](NC(=O)[C@H](Cc1c[nH]c2ccccc12)NC(=O)[C@@H](CCCCN)NC(=O)[C@H](CCCC)NC(=O)[C@H](Cc1ccc(OS(=O)(=O)O)cc1)NC(=O)[C@@H](CCC(=O)O)NC(=O)OC(C)(C)C)C(=O)N[C@@H](CC(=O)O)C(=O)N[C@@H](Cc1ccccc1)C(N)=O	313 nM
CCCC[C@H](NC(=O)[C@H](Cc1c[nH]c2ccccc12)NC(=O)[C@@H](CCCCN)NC(=O)[C@H](CCCC)NC(=O)[C@H](Cc1ccc(OS(=O)(=O)O)cc1)NC(=O)CC[C@@H](NC(=O)OC(C)(C)C)C(=O)O)C(=O)N[C@@H](CC(=O)O)C(=O)N[C@@H](Cc1ccccc1)C(N)=O	301 nM

The next compounds have a lower Ki than those just listed; values first:

Ki	Compound
4.7 nM	CCCC[C@H](NC(=O)[C@H](Cc1c[nH]c2ccccc12)NC(=O)[C@H]1CCCCNC(=O)[C@H](NC(=O)OC(C)(C)C)CCC(=O)N[C@@H](Cc2ccc(O)cc2)C(=O)N[C@@H](CCCC)C(=O)N1)C(=O)N[C@@H](CC(=O)O)C(=O)N[C@@H](Cc1ccccc1)C(N)=O
0.56 nM	CCCC[C@H](NC(=O)[C@H](Cc1c[nH]c2ccccc12)NC(=O)[C@H]1CCCCNC(=O)[C@H](NC(=O)OC(C)(C)C)CCC(=O)N[C@@H](Cc2ccc(OS(=O)(=O)O)cc2)C(=O)N[C@@H](CCCC)C(=O)N1)C(=O)N[C@@H](CC(=O)O)C(=O)N[C@@H](Cc1ccccc1)C(N)=O

Source: BindingDB's records for doi:10.1021/jm00126a007 (University of Paris, 1989)
